pIC50: −log10 of the molar value. In brackets after ≈: the same amount, converted by molar mass. Activity calls are given as the source filed them. The calls are words filed in the database; no cut-off is given here.
Columns and labels:
HCT-116 [1] = experiment: Cytotoxicity against human HCT-116 cells assessed as inhibition of cell growth at 20 uM incubated for 48 hrs by SRB assay relative to control; type: functional
MCF7 [2] = experiment: Cytotoxicity against human MCF7 cells assessed as inhibition of cell growth at 20 uM incubated for 48 hrs by SRB assay relative to control; type: functional
[3] = Cytotoxicity against human HEK293 cells assessed as inhibition of cell growth incubated for 48 hrs by SRB assay; type: toxicity, cell-based
[4] = Selectivity index, ratio of IC50 for HEK293 cells to IC50 for human MCF7 cells; type: toxicity; conditions: HEK293 cells versus MCF7 cells, read-out: Ratio IC50
[5] = Selectivity index, ratio of IC50 for HEK293 cells to IC50 for human HCT-116 cells; type: toxicity; conditions: HEK293 cells versus HCT-116 cells, read-out: Ratio IC50
HCT-116 [6] = experiment: Cytotoxicity against human HCT-116 cells assessed as inhibition of cell growth incubated for 48 hrs by SRB assay; type: functional, cell-based; conditions: HCT-116, 48 h
MCF7 [7] = experiment: Cytotoxicity against human MCF7 cells assessed as inhibition of cell growth incubated for 48 hrs by SRB assay; type: functional, cell-based; conditions: MCF7, 48 h
MCF7 [8] = experiment: Anticancer activity against human MCF7 cells assessed as effect on cell viability by SRB assay; type: functional, cell-based
Raji = experiment: Anticancer activity against human Raji cells; type: functional, cell-based
Jurkat = experiment: Anticancer activity against human Jurkat cells; type: functional, cell-based
MCF7 [9] = experiment: Cell cycle arrest in human MCF7 cells assessed as accumulation of cells at S phase at 5.3 uM incubated for 24 hrs by PI staining based flow cytometric analysis (reference value: 22.93 %); type: functional
MCF7 [10] = experiment: Cell cycle arrest in human MCF7 cells assessed as accumulation of cells at G1 phase at 5.3 uM incubated for 24 hrs by PI staining based flow cytometric analysis (reference value: 63.9 %); type: functional
MCF7 [11] = experiment: Induction of apoptosis in human MCF7 cells assessed as late apoptotic cells at 5.3 uM incubated for 24 hrs by Annexin V-FITC/PI staining based flow cytometric analysis (reference value: 4.85 %); type: functional
MCF7 [12] = experiment: Anticancer activity against human MCF7 cells assessed as reduction in cell viability at 5.3 uM preincubated with ML-193 for 1 hrs followed by compound addition and measured after 48 hrs by SRB assay; type: functional, cell-based
Cytochrome P450 1A2 = Cytochrome P450 1A2 (Homo sapiens, UniProt P05177); experiment: Inhibition of CYP1A2 in human liver microsomes using […] substrate at 1 to 10 uM in presence of NADPH by LC-MS/MS analysis; type: ADME, Microsome; conditions: dose 1-10 µM
MCF7 [13] = experiment: Induction of apoptosis in human MCF7 cells assessed as early apoptotic cells at 5.3 uM incubated for 24 hrs by Annexin V-FITC/PI staining based flow cytometric analysis (reference value: 2.93 %); type: functional
MCF7 [14] = experiment: Anticancer activity against human MCF7 cells assessed as reduction in cell viability at 5.3 uM preincubated with SR144528 for 1 hrs followed by compound addition and measured after 48 hrs by SRB assay; type: functional, cell-based
MCF7 [15] = experiment: Induction of ROS production in human MCF7 cells assessed as DCFDA intensity at 5.3 uM incubated for 24 hrs by flow cytometric analysis (reference value: 0.95 %); type: functional
[16] = Metabolic stability in human liver assessed as intrinsic clearance at 5 uM measured upto 30 mins in presence of NADPH by LC-MS/MS analysis; type: ADME, tissue-based; conditions: read-out: CLH
MCF7 [17] = experiment: Anticancer activity against human MCF7 cells assessed as reduction in cell viability at 5.3 uM incubated for 48 hrs by SRB assay relative to control; type: functional
[18] = Solubility of compound in water by UV absorbance based analysis; type: physicochemical
[19] = Metabolic stability in mouse liver microsomes assessed as half-life at 5 uM measured upto 30 mins in presence of NADPH by LC-MS/MS analysis; type: ADME, Microsome
MCF7 [20] = experiment: Anticancer activity against human MCF7 cells assessed as reduction in cell viability at 5.3 uM preincubated with capsazepine for 1 hrs followed by compound addition and measured after 48 hrs by SRB assay; type: functional, cell-based
[21] = Metabolic stability in mouse liver microsomes assessed as hepatic extraction ratio at 5 uM measured upto 30 mins in presence of NADPH by LC-MS/MS analysis; type: ADME, Microsome; conditions: read-out: ERH
MCF7 [22] = experiment: Cell cycle arrest in human MCF7 cells assessed as accumulation of cells at G2/M phase at 5.3 uM incubated for 24 hrs by PI staining based flow cytometric analysis (reference value: 13.7 %); type: functional
[23] = Metabolic stability in human liver microsomes assessed as intrinsic clearance at 5 uM measured upto 30 mins per mg protein in presence of NADPH by LC-MS/MS analysis; type: ADME, Microsome; conditions: read-out: CLH
MCF7 [24] = experiment: Inhibition of colony formation in human MCF7 cells assessed as reduction in number of colonies at subtoxic doses measured after 48 hrs by crystal violet staining based analysis; type: functional, cell-based
Cytochrome P450 2C19 = Cytochrome P450 2C19 (Homo sapiens, UniProt P33261); experiment: Inhibition of CYP2C19 in human liver microsomes using S-mephenytoin substrate at 1 to 10 uM in presence of NADPH by LC-MS/MS analysis; type: ADME, Microsome; conditions: dose 1-10 µM
MCF7 [25] = experiment: Anticancer activity against human MCF7 cells assessed as reduction in cell viability at 5.3 uM preincubated with GW9662 for 1 hrs followed by compound addition and measured after 48 hrs by SRB assay; type: functional, cell-based
MCF7 [26] = experiment: Anticancer activity against human MCF7 cells assessed as reduction in cell viability at 5.3 uM preincubated with LY320135 for 1 hrs followed by compound addition and measured after 48 hrs by SRB assay; type: functional, cell-based
[27] = Solubility of compound in SIF by UV absorbance based analysis; type: physicochemical
[28] = Metabolic stability in human liver microsomes assessed as hepatic extraction ratio at 5 uM measured upto 30 mins in presence of NADPH by LC-MS/MS analysis; type: ADME, Microsome; conditions: read-out: ERH
[29] = Metabolic stability in human liver microsomes assessed as half-life at 5 uM measured upto 30 mins in presence of NADPH by LC-MS/MS analysis; type: ADME, Microsome
MCF7 [30] = experiment: Induction of apoptosis in human MCF7 cells assessed as viable cells at 5.3 uM incubated for 24 hrs by Annexin V-FITC/PI staining based flow cytometric analysis (reference value: 88.20 %); type: functional; conditions: read-out: Activity
[31] = Metabolic stability in mouse liver microsomes assessed as intrinsic clearance at 5 uM measured upto 30 mins per mg protein in presence of NADPH by LC-MS/MS analysis; type: ADME, Microsome; conditions: read-out: CLH
[32] = Permeability of compound at 100 uM incubated for 16 hrs by PAMPA-BBB assay; type: ADME
[33] = Solubility of compound in SGF by UV absorbance based analysis; type: physicochemical
[34] = Metabolic stability in mouse liver assessed as intrinsic clearance at 5 uM measured upto 30 mins in presence of NADPH by LC-MS/MS analysis; type: ADME, tissue-based; conditions: read-out: CLH
MCF7 [35] = experiment: Induction of apoptosis in human MCF7 cells assessed as necrotic cells at 5.3 uM incubated for 24 hrs by Annexin V-FITC/PI staining based flow cytometric analysis (reference value: 4.02 %); type: functional
MCF7 [36] = experiment: Induction of mitochondrial membrane loss in human MCF7 cells assessed as fold change at 5.3 uM incubated for 24 hrs by Mitotracker dye based flow cytometric analysis relative to control; type: functional

Chain of Cytochrome P450 2C19 (P33261 whole entry): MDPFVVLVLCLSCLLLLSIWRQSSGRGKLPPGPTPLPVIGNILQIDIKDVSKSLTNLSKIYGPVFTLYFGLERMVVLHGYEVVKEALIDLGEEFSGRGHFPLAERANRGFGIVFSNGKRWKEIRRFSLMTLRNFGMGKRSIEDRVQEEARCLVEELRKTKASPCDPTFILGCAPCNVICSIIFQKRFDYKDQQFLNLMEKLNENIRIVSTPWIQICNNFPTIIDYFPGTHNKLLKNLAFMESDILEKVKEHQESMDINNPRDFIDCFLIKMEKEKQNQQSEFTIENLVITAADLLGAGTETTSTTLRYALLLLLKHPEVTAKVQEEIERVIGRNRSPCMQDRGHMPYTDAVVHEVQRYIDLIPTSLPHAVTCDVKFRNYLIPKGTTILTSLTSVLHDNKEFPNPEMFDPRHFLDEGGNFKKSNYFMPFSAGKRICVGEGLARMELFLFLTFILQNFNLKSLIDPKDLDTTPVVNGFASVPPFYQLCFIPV
Chain of Cytochrome P450 1A2 (P05177 whole entry): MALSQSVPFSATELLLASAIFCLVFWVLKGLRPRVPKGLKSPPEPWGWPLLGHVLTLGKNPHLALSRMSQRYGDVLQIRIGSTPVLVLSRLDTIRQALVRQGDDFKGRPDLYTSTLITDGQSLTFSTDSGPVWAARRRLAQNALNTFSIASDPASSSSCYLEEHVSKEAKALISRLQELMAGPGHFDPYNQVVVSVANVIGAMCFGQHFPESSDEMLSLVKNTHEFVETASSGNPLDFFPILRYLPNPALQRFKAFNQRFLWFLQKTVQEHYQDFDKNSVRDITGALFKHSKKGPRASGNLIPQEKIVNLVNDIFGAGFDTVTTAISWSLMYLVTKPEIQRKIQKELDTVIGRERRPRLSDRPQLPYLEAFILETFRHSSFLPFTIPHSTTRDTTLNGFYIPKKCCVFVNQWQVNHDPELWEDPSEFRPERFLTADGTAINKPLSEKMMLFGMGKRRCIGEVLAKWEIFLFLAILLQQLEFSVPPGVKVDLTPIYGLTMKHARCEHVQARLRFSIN

Structure (SMILES): C=C(C)[C@@H]1CCC(C)=C[C@H]1c1c(O)cc(CCCCC)c2c1OCN(c1ccc(OC(F)(F)F)cc1)C2
- inhibition at 20 µM (HCT-116 [1]): 0%
- inhibition at 20 µM (MCF7 [2]): 0%

Structure (SMILES): C=C(C)[C@@H]1CCC(C)=C[C@H]1c1c(O)cc(CCCCC)c2c1OCN(CCCCCC)C2
- IC50 at 48 h [3]: 23.5 µM
- selectivity ratio [4]: 2.4
- selectivity ratio [5]: 1.1
- inhibition at 20 µM (HCT-116 [1]): 70.9%
- pIC50 (HCT-116 [6]): 4.70
- pIC50 (MCF7 [7]): 5.02
- inhibition at 20 µM (MCF7 [2]): 83%

Structure (SMILES): C=C(C)[C@@H]1CCC(C)=C[C@H]1c1c(O)cc(CCCCC)c2c1OCN(c1cnc3ccccc3c1)C2
- inhibition at 20 µM (HCT-116 [1]): 18%
- inhibition at 20 µM (MCF7 [2]): 0%

Structure (SMILES): C=C(C)[C@@H]1CCC(C)=C[C@H]1c1c(O)cc(CCCCC)c2c1OCN(Cc1ccccc1)C2
- inhibition at 20 µM (HCT-116 [1]): 52.3%
- inhibition at 20 µM (MCF7 [2]): 46.5%

Structure (SMILES): Cc1ccc(Cn2nc(C(=O)N[C@@H]3C(C)(C)[C@@H]4CC[C@@]3(C)C4)cc2-c2ccc(Cl)c(C)c2)cc1
- Activity (MCF7 [8]): inactive

Structure (SMILES): C=C(C)[C@@H]1CCC(C)=C[C@H]1c1c(O)cc(CCCCC)c2c1OCN(CC)C2
- IC50 at 48 h [3]: 16.8 µM
- selectivity ratio [4]: 1.9
- selectivity ratio [5]: 0.7
- inhibition at 20 µM (HCT-116 [1]): 57.2%
- pIC50 (HCT-116 [6]): 4.66
- pIC50 (MCF7 [7]): 5.07
- inhibition at 20 µM (MCF7 [2]): 84.3%

Structure (SMILES): O=C(Nc1ccccc1)c1cc([N+](=O)[O-])ccc1Cl
- Activity (MCF7 [8]): inactive

Structure (SMILES): C=C(C)[C@@H]1CCC(C)=C[C@H]1c1c(O)cc(CCCCC)c2c1OCN(C1CCCCCC1)C2
- inhibition at 20 µM (HCT-116 [1]): 50.9%
- inhibition at 20 µM (MCF7 [2]): 74.8%

Structure (SMILES): CCCCCC1=CC(=O)C([C@@H]2C=C(C)CC[C@H]2C(C)C)=C(O)C1=O
- pIC50 (Raji): 6.81
- pIC50 (Jurkat): 6.81

Structure (SMILES): C=C(C)[C@@H]1CCC(C)=C[C@H]1c1c(O)cc(CCCCC)c2c1OCN(CCCC)C2
- Activity (MCF7 [9]): 15.48%
- IC50 at 48 h [3]: 37.1 µM
- Activity (MCF7 [10]): 75.72%
- selectivity ratio [4]: 7
- Activity (MCF7 [11]): 15.07%
- selectivity ratio [5]: 8.8
- Activity (MCF7 [12]): Active
- inhibition (INH) (Cytochrome P450 1A2): Active
- Activity (MCF7 [13]): 8.93%
- inhibition at 20 µM (HCT-116 [1]): 82.6%
- Activity (MCF7 [14]): Active
- Activity (MCF7 [15]): 12.05%
- pIC50 (HCT-116 [6]): 5.38
- CLint scaled at 5 µM [16]: 3.06 L/h/kg
- Activity (MCF7 [17]): 46.45%
- solubility [18]: 0.08 mg/mL (≈ 194 µM)
- half-life at 5 µM [19]: 31 min
- Activity (MCF7 [20]): Active
- hepatic extraction ratio at 0.5 h, 5 µM [21]: 0.67
- Activity (MCF7 [22]): 8.8%
- pIC50 (MCF7 [7]): 5.28
- microsomal CLint at 5 µM [23]: 44 µL/min/mg
- inhibition (MCF7 [24]): Active
- inhibition at 20 µM (MCF7 [2]): 85.3%
- inhibition (INH) (Cytochrome P450 2C19): Active
- Activity (MCF7 [25]): Active
- Activity (MCF7 [26]): Active
- solubility [27]: 0.08 mg/mL (≈ 194 µM)
- hepatic extraction ratio at 0.5 h, 5 µM [28]: 0.71
- half-life at 5 µM [29]: 32 min
- viability at 5.3 µM (MCF7 [30]): 66.1%
- microsomal CLint at 5 µM [31]: 46 µL/min/mg
- permeability [32]: Permeable
- solubility [33]: > 1.5 mg/mL
- CLint scaled at 5 µM [34]: 10.9 L/h/kg
- Activity (MCF7 [35]): 9.86%
- fold change (FC) (MCF7 [36]): 4.3

Structure (SMILES): C=C(C)[C@@H]1CCC(C)=C[C@H]1c1c(O)cc(CCCCC)c2c1OCN(c1ccc(C(C)C)cc1)C2
- inhibition at 20 µM (HCT-116 [1]): 0%
- inhibition at 20 µM (MCF7 [2]): 9.47%

Structure (SMILES): C=C(C)[C@@H]1CCC(C)=C[C@H]1c1c(O)cc(CCCCC)c2c1OCN(C)C2
- IC50 at 48 h [3]: 12.4 µM
- selectivity ratio [4]: 1.6
- selectivity ratio [5]: 1.1
- inhibition at 20 µM (HCT-116 [1]): 56.3%
- pIC50 (HCT-116 [6]): 4.93
- pIC50 (MCF7 [7]): 5.11
- inhibition at 20 µM (MCF7 [2]): 85.3%
